For test [1], the system named is Normal human lung fibroblast cells (NHLF cells, ATCC CRL-7000). As to the kind of experiment: αSMA mRNA transcript by qRT-PCR after TGF-β1 exposure in NHLF. The format is cell-based. The settings on record: TGF-β1 2 ng/mL + fenretinide 1, 2, 3, 4 μM, 3 days, 5% FBS. The method, then:
Normal human lung fibroblast cells (NHLF cells, ATCC CRL-7000, EMEM media; 5% FBS) were incubated for 3 days at 37° C. and treated with TGF-β1 (2 ng/mL) or TGF-β1 (2 ng/mL)+Fenretinide (1, 2, 3, 4 μM). At the end of the 3 day-treatment period, media was removed using a vacuum pump and total ribonucleic acid (RNA) was isolated using the TriReagent protocol (BioShop) and cDNA was obtained by reverse transcription using the SUPERSCRIPT® VILO®. αSMA transcript levels were determined by quantitative real-time Polymerase Chain Reaction (qRT-PCR) using the Fast SyBR Master Mix and specific probes, and quantified following the ΔΔCT, normalized to PUM-1 expression as internal control. The experiment was performed in quadruplicate (4 wells/condition).
A general note: Quantitative PCR measures a nucleic acid by following its amplification.

Test [2] deals with lung fibroblast-populated long microtissue. As to the kind of experiment: Lung fibroblast-populated long microtissue, model of traction bronchiectasis. Format: cell-based, human. The source says: In a fibrotic lung, traction bronchiectasis occurs when small bronchial openings dilate due to traction force exerted by the surrounding fibrotic tissue. To model this unique fibrosis feature of the lung, stress concentrations were patterned to induce the dilation of tissue openings in the engineered microtissues described in Example 2. In order to further increase local stress levels, rigid micropillars were designed to support the long microtissue. In order to experimentally model the mechanical process of traction bronchiectasis, lung fibroblast-populated long microtissue was induced to fibrosis using TGF-β1 treatment (5 ng/ml). Continuous TGF-β1 treatment for 6 days induced increased expression of α-SMA and pro-collagen type 1 across the entire microtissue, in addition to dilated tissue openings around the micropillars. These effects were absent in untreated conditions. To examine the effects of fenretinide (2 μM and 4 μM doses) in inhibiting traction bronchiectasis, fenretinide was co-administered with TGF-β1 at the beginning of long microtissue culture and remained for 6 days. The unique geometry of the long microtissue allows tissue opening (hole) formation around micropillars under elevated contractile force generated by the differentiated myofibroblasts, mimicking the traction bronchiectasis. […] FIG. 9 presents the quantified opening area/total tissue area ratio.

The subject of the next test is human lung microtissues. As to the kind of experiment: Contractile force of TGF-β1 treated 3D lung microtissues (micropillar deflection). The settings on record: for contractile force, reduction vs TGF-β1 only treated condition, percentage change: Day 6. The format is cell-based. The source says:
The lung microtissue chip system used is based on bio-MEMS technology that can assemble 3D cell-populated submillimeter microtissues in arrays of polydimethylsiloxane (PDMS) microwells. In each microwell, human lung fibroblasts or epithelial cells spontaneously contract and assemble the matrix proteins, such as collagen, into microtissues that anchor on top of an array of micropillars. The flexible micropillars serve as in situ force sensors that can report the contractile force generated by the tissue.
The effect of fenretinide on the inhibition of microtissue contractile force in a preventative treatment regimen was also measured. Increased contractile force is one of the main biomechanical features associated with fibrosis progression. The spontaneous contraction force generated by individual microtissues was determined from the deflection of micropillars based on cantilever bending theory. Micropillar deflection was measured using phase contrast microscopy, by comparing the deflected position of the centroid of each pillar top to the centroid of its base. Microtissue contraction force was measured for the same batch of samples on a daily basis for each pharmacological condition. The micropillar spring constant was determined based on the actual geometry of the micropillar and the elastic modulus of the PDMS. […] In contrast, the force developed by untreated samples plateaued after 1 day at around 80 μN. […] The 4 μM fenretinide dose reduced the contractile force by Day 6 to around 70 μN, a reduction of about 38% as compared to TGF-β1 treated condition.
The effect of fenretinide 4 μM dose on the inhibition of microtissue contractile force was tested in a therapeutic treatment regimen. Fibrosis was first allowed to progress for three days under the induction of TGF-β1 (5 ng/ml) and fenretinide was then added from day 3 to day 6 to model a therapeutic treatment. […] TGF-β1 present in media for 3 days and absent for following 3 days (mean±SD, n=8). However, on day 6 as compared to day 3, fenretinide at 2 μM reduced the tissue contractility by 10%, 4 μM fenretinide by 15% and the combination of 2 μM fenretinide and 1.6 mM pirfenidone by 26%.

The structures appear in SMILES notation. Entries after “also recorded” stand apart in the source; their conditions may differ.

The term inhibition denotes the percentage by which the read-out fell short of the control.

Regarding `CC1=C(/C=C/C(C)=C/C=C/C(C)=C/C(=O)Nc2ccc(O)cc2)C(C)(C)CCC1` [fenretinide, 4-hydroxyphenyl retinamide], the “induction of α-SMA fibrotic marker expression (mRNA, qRT-PCR)” value in test [1] is “attenuates, in a dose-dependent manner; also recorded: dose-dependent attenuation”. Further, in test [2] (TGF-β1 5 ng/ml, 6 days, 4 μM), the “expression level of α-SMA in the long microtissue” value is reported as “strongly inhibited”. The “pro-collagen expression in the long microtissue” value in test [2] (TGF-β1 5 ng/ml, 6 days, 4 μM) was “a similar trend”. Moreover, the “tissue openings around micropillars (traction bronchiectasis)” value in test [2] (co-administered with TGF-β1 5 ng/ml for 6 days, 2 μM and 4 μM) is “tissue openings remained small”. The inhibition at 4 µM in the test on human lung microtissues (Homo sapiens, therapeutic treatment, 4 μM, read-out: inhibition of contractile force as compared to TGF-β1 only treated condition (positive control)) was determined as 57%. In addition, the “TGF-β1-induced increase in contractile force” value with human lung microtissues (preventative treatment, 2 μM and 4 μM) is on record as “inhibit TGF-131-induced increase in contractile force in a dose-dependent manner”. Moreover, the microtissue contractile force with human lung microtissues (preventative treatment, 2 μM, 6-day measurement (TGF-β1 only around 130 μN, untreated around 80 μN)) is 80-85 μN; with human lung microtissues (preventative treatment, 4 μM, Day 6 (TGF-β1 only around 130 μN, untreated around 80 μN)) it was “around 70 μN”. For the same compound, the “contractile force, reduction vs TGF-β1 only treated condition, percentage change” value in the test with human lung microtissues (preventative treatment, 2 μM) is listed as “about 28%”; with human lung microtissues (preventative treatment, 2 μM, listed as Fenret) it was 28.0%; with human lung microtissues (preventative treatment, 4 μM), “about 38%”; in the test on human lung microtissues (preventative treatment, 4 μM, listed as Fenret), 38.0%. Also, the “reduction of tissue contractility on day 6 as compared to day 3” value worked out at 10% in the test with human lung microtissues (therapeutic treatment, 2 μM) and 15% with human lung microtissues (therapeutic treatment, 4 μM). The “contractile force, reduction vs TGF-β1 +3/−3 group on day 6, percentage change” value was determined as 34% with human lung microtissues (therapeutic treatment, added day 3 to day 6, 2 μM); 34.0% with human lung microtissues (therapeutic treatment, added day 3 to day 6, 2 μM, listed as Fenret); 34% in the test on human lung microtissues (therapeutic treatment, added day 3 to day 6, 4 μM); 34.0% with human lung microtissues (therapeutic treatment, added day 3 to day 6, 4 μM, listed as Fenret).

The values above are taken from patent US20230310352A1, “NOVEL COMPOSITIONS AND METHODS FOR THE TREATMENT OF LUNG FIBROSIS” (LAURENT PHARMACEUTICALS INC., priority 2020, published 2023).
